From US8637499B2, “Benzoxazepines as inhibitors of PI3K/mTOR and methods of their use and manufacture” (Exelixis, Inc., priority 2009, dated 2014)

Columns and labels:
mTORC1 (mTOR/GbL/Raptor) = mTORC1 (mTOR/GbL/Raptor) (Homo sapiens, UniProt P42345); assay: mTOR/GbL/Raptor (mTORC1) ELISA Assay; type: biochemical; conditions: 0.2 nM mTORC1, 10 μM ATP, 50 nM NHis-tagged 4E-BP1; phosphorylation of 4E-BP1; read-out: IC50
Outline: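 mTORC1 (0.2 nM) phosphorylated NHis-tagged 4E-BP1 (50 nM) with 10 μM ATP in 20 mM Hepes pH 7.2, 10 mM MnCl2, for 120 min at ambient temperature. Product was captured on Ni-chelate plates and detected with anti-phospho-4E-BP1 plus HRP secondary antibody by chemiluminescence.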

PI3Kα = PI3Kα (Homo sapiens, UniProt P42336); assay: PI3K Biochemical Assays (ATP consumption, luciferase-luciferin chemiluminescence); conditions: PI3Kα 1.5 nM, ATP 1 μM, PIP2 10 μM; percent of ATP consumed
Outline: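 Kinase activity read as percent ATP consumed via luciferase-luciferin chemiluminescence. 1.5 nM enzyme, 1 μM ATP, 10 μM PIP2 in 50 mM Tris pH 7.5, 1 mM EGTA, 10 mM MgCl2, 1 mM DTT, 0.03% CHAPS; ~2 h at ambient temperature, ATP consumption kept to 40-60%.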

PI3Kα, sequence (P42336 whole entry): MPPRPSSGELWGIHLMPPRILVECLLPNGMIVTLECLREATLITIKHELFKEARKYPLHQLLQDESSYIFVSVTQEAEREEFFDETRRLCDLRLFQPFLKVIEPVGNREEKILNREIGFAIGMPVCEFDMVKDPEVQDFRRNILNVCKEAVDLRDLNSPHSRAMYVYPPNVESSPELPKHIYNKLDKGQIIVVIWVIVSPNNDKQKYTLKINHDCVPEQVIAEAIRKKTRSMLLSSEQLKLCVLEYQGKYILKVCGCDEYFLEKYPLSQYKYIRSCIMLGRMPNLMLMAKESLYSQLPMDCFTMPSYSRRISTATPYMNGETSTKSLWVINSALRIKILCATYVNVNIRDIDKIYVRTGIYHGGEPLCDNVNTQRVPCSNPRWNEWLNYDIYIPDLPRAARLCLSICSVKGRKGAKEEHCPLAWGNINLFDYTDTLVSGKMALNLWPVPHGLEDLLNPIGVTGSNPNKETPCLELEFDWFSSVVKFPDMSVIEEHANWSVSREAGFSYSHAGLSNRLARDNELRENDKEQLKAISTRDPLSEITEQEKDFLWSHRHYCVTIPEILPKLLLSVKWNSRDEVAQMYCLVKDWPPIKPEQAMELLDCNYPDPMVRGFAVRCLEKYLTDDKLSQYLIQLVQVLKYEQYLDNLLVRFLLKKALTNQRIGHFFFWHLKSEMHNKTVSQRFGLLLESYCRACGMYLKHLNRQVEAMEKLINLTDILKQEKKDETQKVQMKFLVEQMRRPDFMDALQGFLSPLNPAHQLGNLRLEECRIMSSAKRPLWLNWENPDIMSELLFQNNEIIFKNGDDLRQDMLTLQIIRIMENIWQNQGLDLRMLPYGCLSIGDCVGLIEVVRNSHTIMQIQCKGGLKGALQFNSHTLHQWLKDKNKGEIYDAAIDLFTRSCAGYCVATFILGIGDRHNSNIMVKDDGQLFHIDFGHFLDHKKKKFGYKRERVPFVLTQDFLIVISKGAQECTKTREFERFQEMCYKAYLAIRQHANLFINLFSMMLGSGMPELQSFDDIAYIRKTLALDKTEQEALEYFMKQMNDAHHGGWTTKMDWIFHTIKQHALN
PI3Kα, sequence (P27986 whole entry partner): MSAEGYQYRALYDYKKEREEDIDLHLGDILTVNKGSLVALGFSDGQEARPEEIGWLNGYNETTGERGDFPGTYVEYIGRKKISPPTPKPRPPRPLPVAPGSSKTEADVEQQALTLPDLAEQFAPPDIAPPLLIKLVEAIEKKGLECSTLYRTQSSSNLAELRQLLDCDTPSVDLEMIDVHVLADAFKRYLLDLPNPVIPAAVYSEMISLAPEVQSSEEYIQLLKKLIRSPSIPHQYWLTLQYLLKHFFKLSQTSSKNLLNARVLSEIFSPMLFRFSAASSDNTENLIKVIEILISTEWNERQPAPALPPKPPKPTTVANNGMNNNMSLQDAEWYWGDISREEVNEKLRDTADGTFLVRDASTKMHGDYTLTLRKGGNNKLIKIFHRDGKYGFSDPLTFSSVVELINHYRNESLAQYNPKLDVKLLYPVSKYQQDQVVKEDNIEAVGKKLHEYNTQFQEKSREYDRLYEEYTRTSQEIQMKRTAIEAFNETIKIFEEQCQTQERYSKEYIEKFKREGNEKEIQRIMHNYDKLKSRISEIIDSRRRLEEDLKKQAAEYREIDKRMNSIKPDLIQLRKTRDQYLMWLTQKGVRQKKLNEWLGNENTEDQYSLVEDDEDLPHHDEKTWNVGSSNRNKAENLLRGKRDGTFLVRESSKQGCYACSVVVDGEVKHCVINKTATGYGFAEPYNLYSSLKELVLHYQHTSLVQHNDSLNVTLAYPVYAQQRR

| Compound | IC50 (mTORC1 (mTOR/GbL/Raptor)) | IC50 (PI3Kα) |
| --- | --- | --- |
| Cc1nc2ccc(-c3ccc4c(c3)CN(C(=O)N3CCCC3Cc3ccccc3)CCO4)cc2[nH]1 (stereo not drawn) [Compound 94, 7-(2-methyl-1H-benzimidazol-6-yl)-4-{[2-(phenylmethyl)pyrrolidin-1-yl]carbonyl}-2,3,4,5-tetrahydro-1,4-benzoxazepine] | 50 to 250 nM | 1000 to 3000 nM |
| Cc1nc2ccc(-c3ccc4c(c3)CN(C(=O)N3CCC(C(C)(C)O)CC3)CCO4)cc2[nH]1 [Compound 139, 2-(1-{[7-(2-methyl-1H-benzimidazol-6-yl)-2,3-dihydro-1,4-benzoxazepin-4(5H)-yl]carbonyl}piperidin-4-yl)propan-2-ol] | 50 to 250 nM | 1000 to 3000 nM |
| O=C1CCN(C(=O)N2CCOc3ccc(-c4ccc(-c5ncc[nH]5)cc4)cc3C2)[C@@H](c2ccc(F)cc2)C1 [Compound 56, (2R)-2-(4-fluorophenyl)-1-({7-[4-(1H-imidazol-2-yl)phenyl]-2,3-dihydro-1,4-benzoxazepin-4(5H)-yl}carbonyl)piperidin-4-one] | ≤ 50 nM | ≤ 75 nM |
| Cc1nc2ccc(-c3ccc4c(c3)CN(C(=O)N3CCC(=O)CC3c3ccccc3)CCO4)cc2[nH]1 (stereo not drawn) [Compound 111, 1-{[7-(2-methyl-1H-benzimidazol-6-yl)-2,3-dihydro-1,4-benzoxazepin-4(5H)-yl]carbonyl}-2-phenylpiperidin-4-one] | ≤ 50 nM | 75 to 200 nM |
| Cc1nc2ccc(-c3ccc4c(c3)CN(C(=O)N(C)CCc3ccccc3)CCO4)cc2[nH]1 [Compound 93, N-methyl-7-(2-methyl-1H-benzimidazol-6-yl)-N-(2-phenylethyl)-2,3-dihydro-1,4-benzoxazepine-4(5H)-carboxamide] | 700 to 2600 nM | 1000 to 3000 nM |
| CCNc1nc2ccc(-c3ccc4c(c3)CN(C(=O)N3CCC(CF)CC3)CCO4)cc2[nH]1 [Compound 29, N-ethyl-6-(4-{[4-(fluoromethyl)piperidin-1-yl]carbonyl}-2,3,4,5-tetrahydro-1,4-benzoxazepin-7-yl)-1H-benzimidazol-2-amine] | ≤ 50 nM | 75 to 200 nM |
| Cc1nc2ccc(-c3ccc4c(c3)CN(C(=O)N3CCC(c5noc(C6CC6)n5)CC3)CCO4)cc2[nH]1 [Compound 163, 4-{[4-(5-cyclopropyl-1,2,4-oxadiazol-3-yl)piperidin-1-yl]carbonyl}-7-(2-methyl-1H-benzimidazol-6-yl)-2,3,4,5-tetrahydro-1,4-benzoxazepine] | 250 to 700 nM | 1000 to 3000 nM |
| NC(=O)C1CCN(C(=O)N2CCOc3ccc(-c4cnc5nc(N)[nH]c5c4)cc3C2)CC1 [Compound 47, 1-{[7-(2-amino-1H-imidazo[4,5-b]pyridin-6-yl)-2,3-dihydro-1,4-benzoxazepin-4(5H)-yl]carbonyl}piperidine-4-carboxamide] | ≤ 50 nM | ≤ 75 nM |
| COC(=O)Nc1nc2ncc(-c3ccc4c(c3)CN(C(=O)N3CCC(C#N)CC3)CCO4)cc2[nH]1 [Compound 40, methyl (6-{4-[(4-cyanopiperidin-1-yl)carbonyl]-2,3,4,5-tetrahydro-1,4-benzoxazepin-7-yl}-1H-imidazo[4,5-b]pyridin-2-yl)carbamate] | 50 to 250 nM | 200 to 500 nM |
| Cc1nc2ccc(-c3ccc4c(c3)CN(C(=O)N3CCCCCC3c3ccccc3)CCO4)cc2[nH]1 (stereo not drawn) [Compound 122, 7-(2-methyl-1H-benzimidazol-5-yl)-4-[(2-phenylazepan-1-yl)carbonyl]-2,3,4,5-tetrahydro-1,4-benzoxazepine] | 250 to 700 nM | 500 to 1000 nM |
| Cc1nc2ccc(-c3ccc4c(c3)CN(C(=O)N3CCC(=C(F)F)CC3)CCO4)cc2[nH]1 [Compound 137, 4-{[4-(difluoromethylidene)piperidin-1-yl]carbonyl}-7-(2-methyl-1H-benzimidazol-6-yl)-2,3,4,5-tetrahydro-1,4-benzoxazepine] | 250 to 700 nM | 200 to 500 nM |
| COC(=O)Nc1nc2ccc(-c3ccc4c(c3)CN(C(=O)N3CCC(=O)CC3c3ccc(F)cc3)CCO4)cc2[nH]1 (stereo not drawn) [Compound 14, methyl [6-(4-{[2-(4-fluorophenyl)-4-oxopiperidin-1-yl]carbonyl}-2,3,4,5-tetrahydro-1,4-benzoxazepin-7-yl)-1H-benzimidazol-2-yl]carbamate] | 50 to 250 nM | ≤ 75 nM |
| Cc1nc2ccc(-c3ccc4c(c3)CN(C(=O)N3CCC(S(C)(=O)=O)CC3)CCO4)cc2[nH]1 [Compound 102, 7-(2-methyl-1H-benzimidazol-6-yl)-4-{[4-(methylsulfonyl)piperidin-1-yl]carbonyl}-2,3,4,5-tetrahydro-1,4-benzoxazepine] | 50 to 250 nM | 500 to 1000 nM |
| Cc1nc2ccc(-c3ccc4c(c3)CN(C(=O)N3CCC(C)(F)CC3)CCO4)cc2[nH]1 [Compound 83, 4-[(4-fluoro-4-methylpiperidin-1-yl)carbonyl]-7-(2-methyl-1H-benzimidazol-6-yl)-2,3,4,5-tetrahydro-1,4-benzoxazepine] | 50 to 250 nM | 1000 to 3000 nM |
| Nc1nc2ncc(-c3ccc4c(c3)CN(C(=O)N3CCC(CF)CC3)CCO4)cc2[nH]1 [Compound 45, 6-(4-{[4-(fluoromethyl)piperidin-1-yl]carbonyl}-2,3,4,5-tetrahydro-1,4-benzoxazepin-7-yl)-1H-imidazo[4,5-b]pyridin-2-amine] | ≤ 50 nM | ≤ 75 nM |
| Cc1nc2ccc(-c3ccc4c(c3)CN(C(=O)N3CC5CN(c6ccccc6)CC5C3)CCO4)cc2[nH]1 (stereo not drawn) [Compound 110, 7-(2-methyl-1H-benzimidazol-6-yl)-4-[(5-phenylhexahydropyrrolo[3,4-c]pyrrol-2(1H)-yl)carbonyl]-2,3,4,5-tetrahydro-1,4-benzoxazepine] | 250 to 700 nM | 200 to 500 nM |
| CCC1CCC(C)N(C(=O)N2CCOc3ccc(-c4ccc5nc(C)[nH]c5c4)cc3C2)C1 (stereo not drawn) [Compound 76, 4-[(5-ethyl-2-methylpiperidin-1-yl)carbonyl]-7-(2-methyl-1H-benzimidazol-6-yl)-2,3,4,5-tetrahydro-1,4-benzoxazepine] | 50 to 250 nM | 200 to 500 nM |
| COC(=O)Nc1nc2ccc(-c3ccc4c(c3)CN(C(=O)N3CCC(=O)CC3c3cccc(F)c3)CCO4)cc2[nH]1 (stereo not drawn) [Compound 11, methyl [6-(4-{[2-(3-fluorophenyl)-4-oxopiperidin-1-yl]carbonyl}-2,3,4,5-tetrahydro-1,4-benzoxazepin-7-yl)-1H-benzimidazol-2-yl]carbamate] | 50 to 250 nM | ≤ 75 nM |
| Cc1nc2ccc(-c3ccc4c(c3)CN(C(=O)N3CCCCC3c3ccc(F)c(F)c3)CCO4)cc2[nH]1 (stereo not drawn) [Compound 114, 4-{[2-(3,4-difluorophenyl)piperidin-1-yl]carbonyl}-7-(2-methyl-1H-benzimidazol-6-yl)-2,3,4,5-tetrahydro-1,4-benzoxazepine] | ≤ 50 nM | ≤ 75 nM |
| CCOC(=O)[C@H]1CCCN(C(=O)N2CCOc3ccc(-c4ccc5nc(C)[nH]c5c4)cc3C2)C1 [Compound 74, ethyl (3S)-1-{[7-(2-methyl-1H-benzimidazol-6-yl)-2,3-dihydro-1,4-benzoxazepin-4(5H)-yl]carbonyl}piperidine-3-carboxylate] | 250 to 700 nM | 1000 to 3000 nM |
| O=C1CCN(C(=O)N2CCOc3ccc(-c4ccc(C(=O)NCC(F)F)cc4)cc3C2)C(c2cccc(F)c2)C1 (stereo not drawn) [Compound 64, N-(2,2-difluoroethyl)-4-(4-{[2-(3-fluorophenyl)-4-oxopiperidin-1-yl]carbonyl}-2,3,4,5-tetrahydro-1,4-benzoxazepin-7-yl)benzamide] | 50 to 250 nM | 500 to 1000 nM |
| Cc1nc2ccc(-c3ccc4c(c3)CN(C(=O)N3CCCC(c5ccccc5)C3)CCO4)cc2[nH]1 (stereo not drawn) [Compound 97, 7-(2-methyl-1H-benzimidazol-6-yl)-4-[(3-phenylpiperidin-1-yl)carbonyl]-2,3,4,5-tetrahydro-1,4-benzoxazepine] | 250 to 700 nM | 500 to 1000 nM |
| N#CC1CCN(C(=O)N2CCOc3ccc(-c4ccc(-c5ncc[nH]5)nc4)cc3C2)CC1 [Compound 63, 1-({7-[6-(1H-imidazol-2-yl)pyridin-3-yl]-2,3-dihydro-1,4-benzoxazepin-4(5H)-yl}carbonyl)piperidine-4-carbonitrile] | 50 to 250 nM | 500 to 1000 nM |
| Nc1nc2ccc(-c3ccc4c(c3)CN(C(=O)N3CCC(CF)CC3)CCO4)cc2[nH]1 [Compound 26, 6-(4-{[4-(fluoromethyl)piperidin-1-yl]carbonyl}-2,3,4,5-tetrahydro-1,4-benzoxazepin-7-yl)-1H-benzimidazol-2-amine] | ≤ 50 nM | 200 to 500 nM |
| Cc1nc2ccc(-c3ccc4c(c3)CN(C(=O)N3CCC(C)(O)CC3)CCO4)cc2[nH]1 [Compound 79, 4-methyl-1-{[7-(2-methyl-1H-benzimidazol-6-yl)-2,3-dihydro-1,4-benzoxazepin-4(5H)-yl]carbonyl}piperidin-4-ol] | 50 to 250 nM | 500 to 1000 nM |
| COC(=O)Nc1nc2ncc(-c3ccc4c(c3)CN(C(=O)N3CCC(C)CC3)CCO4)cc2[nH]1 [Compound 41, methyl (6-{4-[(4-methylpiperidin-1-yl)carbonyl]-2,3,4,5-tetrahydro-1,4-benzoxazepin-7-yl}-1H-imidazo[4,5-b]pyridin-2-yl)carbamate] | ≤ 50 nM | ≤ 75 nM |
| O=C1CCN(C(=O)N2CCOc3ccc(-c4cnc5[nH]cnc5c4)cc3C2)C(c2cccc(F)c2)C1 (stereo not drawn) [Compound 52, 2-(3-fluorophenyl)-1-{[7-(3H-imidazo[4,5-b]pyridin-6-yl)-2,3-dihydro-1,4-benzoxazepin-4(5H)-yl]carbonyl}piperidin-4-one] | 50 to 250 nM | 200 to 500 nM |
